Laboratory results: paper PMC8765310, “Metabolism, Excretion, and Mass Balance of [^14C]-Rezafungin in Animals and Humans” (Antimicrobial Agents and Chemotherapy, 2022)
*1 amine or outer side, *2 acyl side, *3 side chain or, on linkers, in order; H or OH if unused. Where a SMILES comes first, the peptide text is derived from it. Bridges are numbered along the chain shown (N, C = ends). [ ]: non-standard residue; d: D form. The star is where a group is joined. Orn(4R-OH,5R-OCH2CH2NMe3+) = C[N+](C)(C)CCO[C@@H](N[*:3])[C@H](O)C[C@H](N[*:1])C(=O)[*:2]; pTerphenylCO(4''-OnC5H11) = CCCCCOc1ccc(-c2ccc(-c3ccc(C(=O)*)cc3)cc2)cc1; hTyr(3S-OH,4S-OH) = N[C@H](C(=O)O)[C@H](O)[C@@H](O)c1ccc(O)cc1; Pro(3S-OH,4S-Me) = C[C@H]1CN[C@H](C(=O)O)[C@H]1O; Hyp = O=C(O)[C@@H]1C[C@@H](O)CN1

Experiments:
[1] = Monkey excretion/mass balance of [14C]-rezafungin; assay type: in vivo, cynomolgus monkeys
Method: (§1) (ii) Monkey study design. The study used 3 male cynomolgus monkeys, each administered a single 10 mg/kg IV dose of [^14C]-rezafungin (with a target radioactivity of 100 μCi/kg of [^14C]-rezafungin) by infusion into a saphenous vein over 20 min. Whole blood and plasma samples were collected at each of the following time points: predose, 0.5, 2, 4, 8, 24, 48, 96 120, 144, 168, 240, 480, 720, and 1440 h postdose. Urine, feces, and cage washings were collected at predose (urine/feces only) and daily 24-h collections for 30 days.
(§2) (iii) Sample analysis. Whole blood and fecal homogenates were combusted prior to analysis by liquid scintillation counting (LSC). Blood, plasma, bile, urine, cage rinse/wash, and fecal homogenate samples were mixed with scintillation fluid and analyzed for radioactivity by LSC. Rat carcasses were dissolved in potassium hydroxide, and the resulting digests were mixed with scintillation fluid and analyzed for radioactivity by LSC.

[2] = Human excretion/mass balance of [14C]-rezafungin; assay type: in vivo
Method: (§3) (i) Study design. This was an open-label, phase I, single-dose mass balance study. The study was conducted at Labcorp (formerly, Covance, Inc.; Madison, WI) in accordance with good clinical practice, including ICH guidelines and applicable regulatory requirements, and in general conformity with the Declaration of Helsinki. No animal work was conducted by Labcorp. All pertinent study documents were reviewed by the Institutional Review Board (IRB) prior to study initiation. Following IRB approval and collection of written informed consent, all the subjects underwent an initial screening assessment within 28 days of the first dose. Safety was assessed by vital signs, physical examinations, AE assessments, laboratory tests (chemistry, hematology, and urinalysis), and a 12-lead electrocardiogram.
(§4) Subjects were initially confined in the clinical research unit (CRU) for 17 days postdose and returned for two follow-up visits (days 29 and 60). Recovery of radioactivity was estimated by linear interpolation during the period of time subjects were away from the CRU. Blood samples, urine, and feces were collected at specified times over 60 days.
(§5) (ii) Sample analysis. Whole blood, plasma, urine, and fecal homogenate samples were mixed with scintillation fluid and analyzed by liquid scintillation counting. For non-radiolabeled rezafungin concentration determination, a bioanalytical method was validated for measuring rezafungin in human plasma that is similar to one previously reported for animal plasma ([16]). Samples were analyzed using a 100 μl aliquot volume and a protein-precipitation extraction procedure followed by liquid chromatography/tandem mass spectrometry (LC-MS/MS) analysis. Chromatography was carried out on a Waters Atlantis HPLC column (dC18, 2.1 × 50 mm, 5 μm) operating under reverse-phase gradient conditions (0.1% formic acid in water/0.1% formic acid in acetonitrile/tetrahydrofuran ramped from 55%/45%/0% to 5%/0%/95%). Rezafungin calibration range was 10.0 ng/ml to 10,000 ng/ml using isotopically-labeled d9-rezafungin as an internal standard. An AB-Sciex API 4000 mass spectrometer was operated in the multiple reaction monitoring mode (parent-to-product ion transition) under optimized conditions for detection of rezafungin (m/z 604.5 to 343.3 Da) and d9-rezafungin (m/z 609.5 to 343.3 Da) positive ions formed by electrospray ionization. Excellent intra- and inter-assay accuracy and precision, as measured by quality control (QC) samples, was obtained during validation. Across the range of QC samples tested (lower limit of quantitation, LLOQ, through the High QC range), the intra-assay accuracy (% bias from nominal) ranged from −1.4% to 7.0% with the intra-assay precision (% coefficient of variation) ranging from 1.6% to 7.4%. Inter-assay accuracy ranged from 0.3% to 4.3% with the inter-assay precision ranging from 2.7% to 5%.

[3] = Human clinical pharmacokinetics (plasma rezafungin, plasma and whole blood total radioactivity); assay type: in vivo
Method: as §3, §4, §5
(iv) Metabolite profiling. Plasma samples were pooled across subjects through 672 h postdose to produce inter-subject time point pools. Urine and fecal homogenate samples were pooled by subject across various time points up through 408 and 672 h postdose, respectively. Selected samples of plasma, urine, and feces were profiled for rezafungin and metabolites by HPLC with radiochemical and high-resolution mass spectrometry detection; metabolites were identified by HPLC with known standards and/or by HPLC-MS/MS structure elucidation. Pharmacokinetics were calculated by non-compartmental analysis using Phoenix WinNonlin software (version 6.3/8.1; Pharsight, Mountain View, CA).

[4] = Monkey metabolite profiling (LC-MS with radioactivity detection); assay type: in vivo, cynomolgus monkeys; details: pooled samples, IV 10 mg/kg
Method: as §1
(iv) Metabolite profiling. The metabolite identification and urine profiling were achieved using pooled samples by equal percent weight of samples (urine, bile, feces) or by equal volume (50 μl) aliquots of each plasma sample across all time points/intervals. The urine, plasma, bile, and fecal samples were analyzed using liquid chromatography tandem mass spectrometry (LC-MS) coupled with a radioactivity flow-through detector for metabolite profiling and identification. Tandem MS experiments were performed, and the structures of the metabolites were proposed based on their MS/MS spectra. The proposed structures were confirmed by comparison of the retention times and product ion spectra with the authentic reference standards when possible.

[5] = Rat blood and plasma radioactivity pharmacokinetics; assay type: in vivo, Sprague-Dawley rats; details: IV [14C]-rezafungin 15 mg/kg, mean plasma concentrations
Method: (i) Rat study design. The study used 12 male Sprague-Dawley rats, each administered a bolus IV injection into the tail vein over approximately 3–4 min of 15 mg/kg of rezafungin (with a target radioactivity of 200 μCi/kg of [^14C]-rezafungin). Three of the rats were bile duct cannulated. Whole blood/plasma, urine, feces/bile, and cage washings were collected at periodic intervals from noncannulated rats until euthanization at 336 h postdose and from bile duct cannulated rats until euthanization at 120 h postdose as that was the duration that the patency of bile duct cannulae could be maintained. Carcasses were collected at the time of euthanization. All samples were analyzed for drug-derived radioactivity by liquid scintillation counting.
as §2

[6] = monkeys, 10 mg/kg IV, through 720 h postdose
[7] = of the estimated total through day 60
[8] = single 400-mg IV infusion, LSC, mean (SD)
[9] = single 400-mg IV infusion, mean (SD)
[10] = single 400-mg IV infusion, median (min, max)

Structure (SMILES): CCCCCOc1ccc(-c2ccc(-c3ccc(C(=O)N[C@H]4C[C@@H](O)[C@@H](OCC[N+](C)(C)C)NC(=O)[C@@H]5[C@@H](O)[C@@H](C)CN5C(=O)[C@H]([C@@H](C)O)NC(=O)[C@H]([C@H](O)[C@@H](O)c5ccc(O)cc5)NC(=O)[C@@H]5C[C@@H](O)CN5C(=O)[C@H]([C@@H](C)O)NC4=O)cc3)cc2)cc1 [rezafungin] ({pTerphenylCO(4''-OnC5H11)}-[Orn(4R-OH,5R-OCH2CH2NMe3+)]T[Hyp][hTyr(3S-OH,4S-OH)]T[Pro(3S-OH,4S-Me)]; lactam 1-C)
- Average total recovery of radioactivity ([1]; 3 male monkeys, single 10 mg/kg IV 20-min infusion (100 μCi/kg), at 168 h (1 week) postdose, LSC): 47.02 % of the dose
- Radioactivity recovered in feces ([1]; monkeys, 10 mg/kg IV, at 720 h postdose): 60 % of the administered dose
- Mean total recovery of radioactivity ([1]; monkeys, 10 mg/kg IV, through 360 h postdose): 65 % of the dose
- Radioactivity recovered in cage residue [1, 6]: 4.3 % of the administered dose
- Radioactivity recovered in urine [1, 6]: 9.7 % of the administered dose
- Share of the total recovered radioactivity found in feces [2, 7]: Approximately 73%
- Share of the total recovered radioactivity found in urine [2, 7]: 27%
- Cumulative recovery of radioactivity from excreta ([2]; single 400-mg IV infusion, through the first 17 days (in-clinic), LSC, mean): 52%
- Estimated mean overall recovery of the dose ([2]; through day 60, linear interpolation with day 29 and day 60 visits): 88.3%
- Cumulative recovery of radioactivity in feces ([2]; through the first 17 days): 38%
- Cumulative recovery of radioactivity in urine ([2]; through the first 17 days): 14%
- Cmax ([3]; male, plasma, single 400-mg IV infusion, LC-MS/MS, mean (SD), SD): 18900 ng/mL
- AUC(0-inf) ([3]; male, plasma, single 400-mg IV infusion, LC-MS/MS, mean (SD), SD, read-out: AUC0-∞, plasma rezafungin): 2110 µg·h/mL
- Vd ([3]; male, plasma, single 400-mg IV infusion, apparent volume of distribution, terminal phase, mean (SD), SD, read-out: VZ, plasma rezafungin): 88.6 L
- Tmax ([3]; male, plasma, single 400-mg IV infusion, median (min, max)): 1 h
- half-life ([3]; male, plasma, single 400-mg IV infusion, terminal elimination half-life, mean (SD), SD, read-out: t½, plasma rezafungin (converted)): 341 h
- AUC(0-t) ([3]; plasma, 9 healthy male subjects, single 400-mg IV infusion (200 μCi), LC-MS/MS, arithmetic mean (SD), SD, read-out: AUC0-t, plasma rezafungin): 2050 µg·h/mL
- AUC0-t, plasma total radioactivity ([3]; single 400-mg IV infusion (200 μCi), LSC, mean (SD)): 2600 (163) μg equivalent×hour/ml
- AUC0-t, whole blood total radioactivity [3, 8]: 2390 (175) μg equivalent×hour/ml
- AUC0-∞, plasma total radioactivity [3, 8]: 2750 (182) μg equivalent×hour/ml
- AUC0-∞, whole blood total radioactivity [3, 8]: 2450 (200) μg equivalent×hour/ml
- Cmax, plasma total radioactivity [3, 8]: 18.2 (2.28) μg/ml
- Cmax, whole blood total radioactivity [3, 8]: 18.5 (2.24) μg/ml
- t½, plasma total radioactivity [3, 9]: 387 (44.8) hours
- t½, whole blood total radioactivity [3, 9]: 408 (39.7) hours
- tmax, plasma total radioactivity [3, 10]: 1.00 (1.00, 1.00) hours
- tmax, whole blood total radioactivity [3, 10]: 1.00 (1.00, 1.00) hours
- Share of total recovered radioactivity in feces ([4]; monkey feces): 35%
- Share of total plasma radioactivity exposure ([4]; monkey plasma, LC-MS with radio-detection): 74%
- t1/2 of plasma total radioactivity [5]: 54 h
